Source: US6967192B2, “Seventeen amino acid peptide (Peptide P) for treating ischemia and reperfusion injury” (University of Kentucky Research Foundation, priority 2001, dated 2005)
“And” between values parts separate entries of the source, which are not always exact repeats. Identical values can stand only once.

Test system: murine model of ischemia/reperfusion injury (cerebral ischemia)
Experiment: Murine ischemia/reperfusion model: brain infarct size/volume by TTC staining
Type: in vivo, mouse
Parameters: Damaged Cross Section Area (sum of sections), individual mice: unit: mm^2
Details: for infarct size (Damaged %), Average: 4 mg/Kg I.V. 1 hr after occlusion, 1 hr ischemia; for infarct size (Damaged %), Average / infarct volume (Corrected Volume), Average: mean ± SEM
[1] = 4 mg/Kg after 1 hr ischemia, 24 hr reperfusion, n=6
[2] = 4 mg/Kg after 1 hr ischemia, 24 hr reperfusion, mice No. 1-6, listed as Pep-P

## Tyr-D-Ala-Phe-Ala-Asp-Val-Ala-Ser-Thr-Ile-Gly-Asp-Phe-Phe-His-Ser-Ile-NH2 (AFADVASTIGDFFHSI; D-Ala, C-terminal amide; printed: Ala-Phe-Ala-Asp-Val-Ala-Ser-Thr-Ile-Gly-Asp-Phe-Phe-His-Ser-Ile-) [Peptide P, linear 17 amino acid peptide with alanine as D-isomer]
24 hr reperfusion, n=6
  infarct size (Damaged %), Average: 16.87+/−3.3%
24 hr reperfusion, n=6, listed as Pep-P
  infarct size (Damaged %), Average: 16.87 ± 3.3%
[1]
  infarct volume (Corrected Volume), Average: 24±4.8 mm^3
  Damaged Cross Section Area (sum of sections), Average: 11.87 ± 2.4%
4 mg/Kg after 1 hr ischemia, 24 hr reperfusion, n=6, listed as Pep-P
  infarct volume (Corrected Volume), Average: 23.74 ± 4.8% mm^3
4 mg/Kg after 1 hr ischemia, 24 hr reperfusion, mice No. 1-6, Damaged Cross Section Area × 2 mm section, listed as Pep-P
  Corrected Volume, individual mice: 35.32 mm^3 and 5.10 mm^3 and 16.98 mm^3 and 35.86 mm^3 and 25.84 mm^3 and 23.36 mm^3
[2]
  Damaged %, individual mice: 25.77% and 3.94% and 12.69% and 24.58% and 18.16% and 16.10%
  Damaged Cross Section Area (sum of sections), individual mice: 17.66 and 2.55 and 8.49 and 17.93 and 12.92 and 11.68
4 mg/kg, after 24 h of reperfusion
  reduction of infarct volume compared to control animals: 59%
Brain section 1, 4 mg/Kg after 1 hr ischemia, 24 hr reperfusion, listed as Pep-P, 4 mg/kg
  Damaged Cross Section Area 1, individual mice: 3.69 and 0 (2×) and 1.42 and 1.89 and 0.27
Brain section 2, 4 mg/Kg after 1 hr ischemia, 24 hr reperfusion, listed as Pep-P, 4 mg/kg
  Damaged Cross Section Area 2, individual mice: 5.66 and 0.32 and 1.38 and 3.27 and 4.59 and 1.8
Brain section 3, 4 mg/Kg after 1 hr ischemia, 24 hr reperfusion, listed as Pep-P, 4 mg/kg
  Damaged Cross Section Area 3, individual mice: 6.47 and 1.12 and 2.63 and 7.23 and 2.22 and 5.15
Brain section 4, 4 mg/Kg after 1 hr ischemia, 24 hr reperfusion, listed as Pep-P, 4 mg/kg
  Damaged Cross Section Area 4, individual mice: 1.84 and 1.11 and 3.06 and 5.54 and 6.11 and 4.46
